Assay results reported in patent US4029731A, “Aminophenyltetralin compounds” (Pfizer Inc., priority 1976, dated 1977).
“And” between values parts separate entries of the source, which are not always exact repeats. Equal values may be shown once. Where a name gives a salt, the structure may show the parent alone.

Tests used:
[1] = system: spontaneous motor activity in mice; test: Spontaneous motor activity in mice (actophotometer activity counts); assay type: in vivo; details: for hyperactive response: same conditions, 0.32, 1.0, 3.2, 10 and 32 mg./kg.
Method: A total of seven mice was employed at each dose level tested (viz., at 0.32, 1.0, 3.2, 10 and 32 mg./kg., i.p., respectively) and these mice were separated one to an activity cage. After an initial one-half hour exposure period (for acclimation purposes), each animal in the cage was treated with a sample of the drug intraperitoneally and immediately thereafter returned to said cage, with activity counts every one-half hour being recorded from that point on.

[2] = system: reserpine-induced hypothermia in the mouse; test: Reversal of reserpine-induced hypothermia in the mouse; assay type: in vivo; details: 32 mg./kg. i.p., 2 hours after dosing; reserpine 2 mg./kg. s.c. 18 hours before; saline control 25.1° ± 3.2° C.
Method: The 1-amino-4-phenyltetraline final products of Examples III-IX were tested for antidepressant activity by measuring their ability to reverse reserpine-induced hypothermia in the mouse according to the procedure described by B.M. Askew in Life Science, Vol. 2, p. 725 (1963). In this test, all the animals were individually housed in plastic chambers with a cardboard bottom. The mice were injected with reserpine subcutaneously at 2 mg./kg. and retained at an ambient temperature of 20° C. for a period of 18 hours. At this point, their rectal temperatures were initially ascertained and immediately thereafter they were divided into groups of 5-20 animals for testing purposes. Each group then received either saline as a control or the compound to be tested at a dose level of 32 mg./kg., administered intraperitoneally, and the resulting rectal temperatures were measured two hours later. In the table below, the entries are reported as mean rectal temperatures for each compound at the 2-hour mark, together with the number of animals tested in each particular group.

[3] = system: norepinephrine (H^3 NE) uptake into the rat heart; test: Blockade of tritium-labeled norepinephrine (H^3 NE) uptake into the rat heart in vivo; details: 32 μmoles/kg. (8.8 mg./kg.) i.p. 20 minutes before i.v. dl-H^3 NE, each entry a mean from a separate experiment
Method: The 1-amino-4-phenyltetralin final products of Examples IV-V and VIII-IX were tested for antidepressant activity by measuring their ability to block tritium-labeled norepinephrine (H^3 NE) uptake into the rat heart in vivo. For these particular studies, rats in groups of five were pretreated with the control vehicle or the drug to be administered at 32 μmoles/kg. (8.8 mg./kg.), via the intraperitoneal route, followed 20 minutes later by intravenous injection of dl-H^3 NE (having a specific activity of 9.5 c/mmole) at a dose level of 5 μc/kg. The rats were then sacrificed one hour ater administration of said agent (H^3 NE), and the norepinephrine (NE) content present in the heart was subsequently isolated therefrom by means of extraction with alumina, followed by repeated elution of said alumina extracts with 0.05N aqueous hydrochloric acid. The specific activity (cpm/μg.) of H^3 NE in the heart was then determined by measuring the amount of radioactivity (using a liquid scintillation counter) and the NE content (fluorimetrically via an Auto-Analyzer of the type manufactured by the Technicon Instruments Corporation of Chauncey, N.Y.) of the aforesaid aqueous eluates. The results obtained in this manner are presented below in the following table, where the individual entries are each made from a separate experiment and constitute mean relative specific activities expressed in terms of percent control: […]

[4] = system: norepinephrine uptake into both rat heart and rat brain; reserpine hypothermia in mice; test: Antidepressant activity (norepinephrine uptake into rat heart and rat brain in vivo; reversal of reserpine hypothermia in mice); details: base and hydrochloride acid addition salts
Method: The activity of the compounds of the present invention as antidepressants is determined by a study of their ability to supress norepinephrine uptake into both rat heart and rat brain (in vivo), together with a determination of their ability to bring about a reversal of reserpine hypothermia in mice.

In the case of CNCCCC1c2ccccc2C=Cc2ccccc21 [protriptlyine, protriptyline, reference compound], the hyperactive response ([1]; i.p.) is reported as “failed to elicit any hyperactive response whatsoever”.
For Cl.N[C@@H]1CC[C@@H](c2ccccc2)c2ccccc21 (relative stereo) [Trans-isomer of Example IX, trans-4-phenyl-1,2,3,4-tetrahydro-1-naphthylamine hydrochloride], the “Mean Rectal Temperature, Temp. (° C.) ±S.D.” value (“Mean Rectal Temperature” for short) [2] was 31.8 ± 2.5 °C and the “Sp. Activity of Heart H^3 NE (% Control)” value ([3]; hydrochloride) was 60 % Control and 66 % Control.
With c1ccc([C@@H]2CC[C@@H](NC3CC3)c3ccccc32)cc1 (relative stereo) [trans-dl-N-cyclopropyl-4-phenyl-1,2,3,4-tetrahydro-1-naphthylamine] the “degree of antidepressant activity” value [4] was “markedly high degree of antidepressant activity”.
In the case of CN(C)[C@@H]1CC[C@@H](c2ccccc2)c2ccccc21 (relative stereo) [Trans-isomer of Example VIII, trans-dl-N,N-dimethyl-4-phenyl-1,2,3,4-tetrahydro-1-naphthylamine hydrochloride], the “Mean Rectal Temperature” value [2] is reported as 33.5 ± 1.4 °C and the “Sp. Activity of Heart H^3 NE (% Control)” value [3] is reported as 49 % Control.
With CC(C)N[C@@H]1CC[C@@H](c2ccccc2)c2ccccc21 (relative stereo) [Trans-isomer of Example VI, trans-dl-N-isopropyl-4-phenyl-1,2,3,4-tetrahydro-1-naphthylamine hydrochloride] the “Mean Rectal Temperature” value [2] was 32.6 ± 0.7 °C.
In the case of CN(C)[C@@H]1CC[C@@H](c2ccccc2)c2ccccc21 (relative stereo) [trans-dl-N,N-dimethyl-4-phenyl-1,2,3,4-tetrahydro-1-naphthylamine], the “degree of antidepressant activity” value [4] is reported as “markedly high degree of antidepressant activity”.
N[C@@H]1CC[C@@H](c2ccccc2)c2ccccc21 (relative stereo) [trans-dl-4-phenyl-1,2,3,4-tetrahydro-1-naphthylamine] was tested, and the “degree of antidepressant activity” value [4] was “markedly high degree of antidepressant activity”.
For CCN[C@@H]1CC[C@@H](c2ccccc2)c2ccccc21 (relative stereo) [trans-dl-N-ethyl-4-phenyl-1,2,3,4-tetrahydro-1-naphthylamine], the “degree of antidepressant activity” value [4] was “markedly high degree of antidepressant activity”.
With CNCCCN1c2ccccc2CCc2ccccc21 [desmethylimipramine, reference compound] the hyperactive response ([1]; i.p.) was “failed to elicit any hyperactive response whatsoever”.
CCN[C@@H]1CC[C@@H](c2ccccc2)c2ccccc21 (relative stereo) [Trans-isomer of Example V, trans-dl-N-ethyl-4-phenyl-1,2,3,4-tetrahydro-1-naphthylamine hydrochloride] was tested, and the “Mean Rectal Temperature” value [2] was 33.5 ± 0.9 °C and the “Sp. Activity of Heart H^3 NE (% Control)” value ([3]; hydrochloride) was 71 % Control and 75 % Control.
In the case of CN[C@@H]1CC[C@@H](c2ccccc2)c2ccccc21 (relative stereo) [Trans-isomer of Example IV, trans-dl-N-methyl-4-phenyl-1,2,3,4-tetrahydro-1-naphthylamine hydrochloride], the “Mean Rectal Temperature” value [2] is reported as 33.5 ± 1.5 °C, the “Sp. Activity of Heart H^3 NE (% Control)” value ([3]; hydrochloride) is reported as 14 % Control and 19 % Control and 21 % Control and 25 % Control and the “time course / duration of effect” value ([1]; 32 mg./kg. i.p.) is reported as “especially long-lived”. For the same molecule, the “potency compared with dextrorotatory isomer” value ([1]; i.p., spontaneous motor activity) was “somewhat less potent than the aforesaid dextrorotatory isomer”.
In the case of CN[C@H]1CC[C@H](c2ccccc2)c2ccccc21 [Trans-l-isomer of Example III, trans-l-N-methyl-4-phenyl-1,2,3,4-tetrahydro-1-naphthylamine hydrochloride], the “Mean Rectal Temperature” value [2] is reported as 27.5 ± 2.9 °C and the stimulant effect ([1]; 10 and 32 mg./kg. (i.p.)) is reported as “little evidence of a stimulant effect”.
c1ccc([C@@H]2CC[C@@H](NC3CC3)c3ccccc32)cc1 (relative stereo) [Trans-isomer of Example VII, trans-dl-N-cyclopropyl-4-phenyl-1,2,3,4-tetrahydro-1-naphthylamine hydrochloride] was tested, and the “Mean Rectal Temperature” value [2] was 32.6 ± 0.7 °C.
CN[C@H]1CC[C@@H](c2ccccc2)c2ccccc21 (relative stereo) [Cis-isomer of Example IV, cis-dl-N-methyl-4-phenyl-1,2,3,4-tetrahydro-1-naphthylamine hydrochloride] was tested, and the “Mean Rectal Temperature” value [2] was 27.0 ± 3.4 °C and the “Sp. Activity of Heart H^3 NE (% Control)” value ([3]; hydrochloride) was 87 % Control and 104 % Control.
For N[C@H]1CC[C@@H](c2ccccc2)c2ccccc21 (relative stereo) [Cis-isomer of Example IX, cis-dl-4-phenyl-1,2,3,4-tetrahydro-1-naphthylamine hydrochloride], the “Mean Rectal Temperature” value [2] was 30.8 ± 2.6 °C and the “Sp. Activity of Heart H^3 NE (% Control)” value [3] was 93 % Control.
With c1ccc([C@@H]2CC[C@H](NC3CC3)c3ccccc32)cc1 (relative stereo) [Cis-isomer of Example VII, cis-dl-N-cyclopropyl-4-phenyl-1,2,3,4-tetrahydro-1-naphthylamine hydrochloride] the “Mean Rectal Temperature” value [2] was 25.3 ± 4.4 °C.
CC(C)N[C@H]1CC[C@@H](c2ccccc2)c2ccccc21 (relative stereo) [Cis-isomer of Example VI, cis-dl-N-isopropyl-4-phenyl-1,2,3,4-tetrahydro-1-naphthylamine hydrochloride] was tested, and the “Mean Rectal Temperature” value [2] was 27.3 ± 3.6 °C.
With CC(C)N[C@@H]1CC[C@@H](c2ccccc2)c2ccccc21 (relative stereo) [trans-dl-N-isopropyl-4-phenyl-1,2,3,4-tetrahydro-1naphthylamine] the “degree of antidepressant activity” value [4] was “markedly high degree of antidepressant activity”.
CCN[C@H]1CC[C@@H](c2ccccc2)c2ccccc21 (relative stereo) [Cis-isomer of Example V, cis-dl-N-ethyl-4-phenyl-1,2,3,4-tetrahydro-1-naphthylamine hydrochloride] was tested, and the “Mean Rectal Temperature” value [2] was 28.0 ± 2.3 °C and the “Sp. Activity of Heart H^3 NE (% Control)” value [3] was 144 % Control.
For CN(C)[C@H]1CC[C@@H](c2ccccc2)c2ccccc21 (relative stereo) [Cis-isomer of Example VIII, cis-dl-N,N-dimethyl-4-phenyl-1,2,3,4-tetrahydro-1-naphthylamine hydrochloride], the “Mean Rectal Temperature” value [2] was 31.4 ± 2.4 °C and the “Sp. Activity of Heart H^3 NE (% Control)” value [3] was 120 % Control.
